pIC50: −log10 of the molar value.
Target: Egl nine homolog 1 (Homo sapiens, UniProt Q9GZT9)
Assay: Inhibition Assay: The IC50 values for the PHD2 enzyme (residues 181-417) were determined by mixing increasing amounts of inhibitor with a fixed amount of enzyme (5 nM, final concentration) and Biotin labeled peptide (Biotin-Asp-Leu-Glu-Met-Leu-Ala-Pro-Tyr-Ile-Pro-Met-Asp-Asp-Asp-Phe-Gln-Leu, 1 uM final concentration) and 2-Oxyglutarate (2 uM final concentration) in 50 mM HEPES, 50 mM KCl, 0.5 mM TCEP, 2 uM FeCl2, 0.1 mg/ml BSA, at pH 7.3. The reaction was conducted by pre-incubating the enzyme in the presence of inhibitor for 60 min at room temperature. The activity of the free enzyme was measured by adding the peptide, the 2-Oxoglutarate (see above for final concentrations), and Ascorbic Acid (1 mM final concentration). The enzymatic activity was quenched after 60 min by adding an excess of a tight binding inhibitor to the assay mixture. The amount of product released was measured by using a LC/MS system (Agilent HPLC with Applied Biosystems API3000 Mass Spectrometer).

Sequence of Egl nine homolog 1 (Q9GZT9 whole entry, the tested form may be a part): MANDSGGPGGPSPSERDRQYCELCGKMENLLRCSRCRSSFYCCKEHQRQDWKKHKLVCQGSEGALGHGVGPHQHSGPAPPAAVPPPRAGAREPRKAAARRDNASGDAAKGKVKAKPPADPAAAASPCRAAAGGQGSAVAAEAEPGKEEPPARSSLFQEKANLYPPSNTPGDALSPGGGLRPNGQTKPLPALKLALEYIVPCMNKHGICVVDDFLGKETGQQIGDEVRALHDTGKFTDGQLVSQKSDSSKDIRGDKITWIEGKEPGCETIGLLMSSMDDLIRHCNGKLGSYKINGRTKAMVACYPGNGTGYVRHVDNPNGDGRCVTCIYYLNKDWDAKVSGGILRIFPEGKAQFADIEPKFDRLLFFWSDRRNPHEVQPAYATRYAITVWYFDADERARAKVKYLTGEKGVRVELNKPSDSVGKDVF

SMILES | pIC50
CCN1CCC(NC(=O)c2ccc(-n3ncc(-c4ccnc(OC)c4)c3O)nc2)CC1 | 7.11
CC(C)(C)NC(=O)c1ccc(-n2ncc(-c3cccnc3)c2O)nc1 | 8.00
COc1cc(-c2cnn(-c3ccc(C(=O)NCCC4CCCN4C)cn3)c2O)ccn1 (stereo unspecified) | 6.90
COc1cc(-c2cnn(-c3ccc(C(=O)NCCCN4CCCC4)cn3)c2O)ccn1 | 7.01
CN1CCC(NC(=O)c2ccc(-n3ncc(-c4ccc(C#N)cc4)c3O)nc2)CC1=O (stereo unspecified) | 6.89
COc1cc(-c2cnn(-c3ccc(C(=O)NCCCN4CCCCC4)cn3)c2O)ccn1 | 7.06
COc1cc(-c2cnn(-c3ccc(C(=O)NCCCN4CCCC4=O)cn3)c2O)ccn1 | 7.29
COc1cc(C#N)ccc1-c1cnn(-c2ccc(C(=O)NCCC3CCCO3)cn2)c1O (stereo unspecified) | 7.18
COc1cc(-c2cnn(-c3ccc(C(=O)NCCCn4ccnc4)cn3)c2O)ccn1 | 7.43
CCN1CCC(CN(C)C(=O)c2ccc(-n3ncc(-c4ccc(C#N)cc4)c3O)nc2)C1 (stereo unspecified) | 7.25
COCCNC(=O)c1cnc(-n2ncc(-c3ccc(C#N)cc3)c2O)cc1C | 7.01
